# Test results as given in patent US10106542B2, “Substituted 6,7-dihydropyrazolo[1,5-a]pyrazines as negative allosteric modulators of mGluR2 receptors” (Janssen Pharmaceutica NV, priority 2013, dated 2018).
# Structures can show the parent of a compound that is named as a salt.
# What was measured:
# human mGlu2 receptor = molecular target: T1, human mGlu2 receptor (Homo sapiens, UniProt Q14416); assay: [35S]GTPγS binding assay (mGluR2 negative allosteric modulation); type: biochemical; settings: for IC50: membranes from CHO cells transfected with human mGlu2 receptor, glutamate 60 μM, pIC50 = −log IC50 (M), read-out: GTPγS - hmGluR2 anGT pIC50 (converted); for Emax: read-out: GTPγS - hmGluR2 anGT Emax
# T1 construct: expressed in transfected cells; host or cells: CHO cells (membrane preparation)
# T1 sequence (Q14416 19-872): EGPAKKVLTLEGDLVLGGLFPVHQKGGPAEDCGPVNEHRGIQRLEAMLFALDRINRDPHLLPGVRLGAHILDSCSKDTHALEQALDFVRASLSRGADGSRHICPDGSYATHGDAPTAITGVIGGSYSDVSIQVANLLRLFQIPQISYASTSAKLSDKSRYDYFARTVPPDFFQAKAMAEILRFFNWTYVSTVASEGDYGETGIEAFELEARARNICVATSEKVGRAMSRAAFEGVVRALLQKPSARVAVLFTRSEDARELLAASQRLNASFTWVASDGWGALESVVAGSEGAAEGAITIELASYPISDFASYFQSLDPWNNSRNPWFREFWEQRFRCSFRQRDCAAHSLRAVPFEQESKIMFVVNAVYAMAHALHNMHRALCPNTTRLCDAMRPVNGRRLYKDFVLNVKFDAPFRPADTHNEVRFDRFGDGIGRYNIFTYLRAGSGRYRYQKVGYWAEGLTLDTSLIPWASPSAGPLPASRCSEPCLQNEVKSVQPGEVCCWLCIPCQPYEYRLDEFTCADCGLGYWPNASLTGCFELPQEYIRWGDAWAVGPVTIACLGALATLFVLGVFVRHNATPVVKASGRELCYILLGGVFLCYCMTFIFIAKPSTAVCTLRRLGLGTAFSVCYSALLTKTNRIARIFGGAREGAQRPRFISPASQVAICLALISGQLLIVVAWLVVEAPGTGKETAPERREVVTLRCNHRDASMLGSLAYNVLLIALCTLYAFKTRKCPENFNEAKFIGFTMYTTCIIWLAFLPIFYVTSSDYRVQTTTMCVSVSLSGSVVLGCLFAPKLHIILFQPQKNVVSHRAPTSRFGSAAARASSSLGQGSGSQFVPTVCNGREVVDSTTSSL
# Description: 1) [^35S]GTPγS binding assay
# The [^35S]GTPγS binding assay is a functional membrane-based assay used to study G-protein coupled receptor (GPCR) function whereby incorporation of a non-hydrolysable form of GTP, [^35S]GTPγS (guanosine 5′-triphosphate, labelled with […] ^35S), is measured. The G-protein a subunit catalyzes the exchange of guanosine 5′-diphosphate (GDP) by guanosine triphosphate (GTP) and on activation of the GPCR by an agonist, [^35S]GTPγS, becomes incorporated and cannot be cleaved to continue the exchange cycle (Harper (1998) Current Protocols in Pharmacology 2.6.1-10, John Wiley & Sons, Inc.). […] Here we describe the use of the [^35S]GTPγS binding assay using membranes from cells transfected with the human mGlu2 receptor and adapted from Schaffhauser et al. (Molecular Pharmacology, 2003, […]) for the detection of the negative allosteric modulation (NAM) properties of the compounds of this invention.
# CHO-cells were cultured to pre-confluence and stimulated with 5 mM butyrate for 24 h. Cells were then collected by scraping in PBS and cell suspension was centrifuged (10 min at 4000 RPM in benchtop centrifuge). Supernatant was discarded and pellet gently resuspended in 50 mM Tris-HCl, pH 7.4 by mixing with an Ultra Turrax homogenizer. The suspension was centrifuged at 12,400 RPM (Sorvall F14S-6x250Y) for 10 minutes and the supernatant discarded. The pellet was homogenized in 5 mM Tris-HCl, pH 7.4 using an Ultra Turrax homogenizer and centrifuged again (13,000 RPM, 20 min, 4° C.). The final pellet was resuspended in 50 mM Tris-HCl, pH 7.4 and stored at −80° C. in appropriate aliquots before use. Protein concentration was determined by the Bradford method (Bio-Rad, USA) with bovine serum albumin as standard.
# Measurement of mGluR2 negative allosteric modulatory activity of test compounds was performed as follows. Test compounds and glutamate were diluted in assay buffer containing 10 mM HEPES acid, 10 mM HEPES salt, pH 7.4, 100 mM NaCl, 3 mM MgCl2 and 10 μM GDP. Human mGlu2 receptor-containing membranes were thawed on ice and diluted in assay buffer supplemented with 18 μg/ml saponin. […] After addition of [^35S]GTPγS (f.c. 0.1 nM), assay mixtures were shaken briefly and further incubated to allow [^35S]GTPγS incorporation on activation (30 minutes, 30° C.). Final assay mixtures contained 7 μg of membrane protein in 10 mM HEPES acid, 10 mM HEPES salt, pH 7.4, 100 mM NaCl, 3 mM MgCl2, 10 μM GDP and 10 μg/ml saponin. Total reaction volume was 200 μl. Reactions were terminated by rapid filtration through Unifilter-96 GF/B plates (Perkin Elmer, Massachusetts, USA) using a 96-well filtermate universal harvester. Filters were washed 6 times with ice-cold 10 mM NaH2PO4/10 mM Na2HPO4, pH 7.4. Filters were then air-dried, and 30 μl of liquid scintillation cocktail (Microscint-O) was added to each well. Membrane-bound radioactivity was counted in a Topcount.
# The concentration-response curves of representative compounds of the present invention were generated using the Lexis software interface (developed at J&J). Data were calculated as % of the control glutamate response, defined as the response that is generated upon addition of an EC80-equivalent concentration of glutamate.
# [1] = relative maximal effect: maximal % inhibition relative to the control glutamate response
Structure (SMILES),melting point,IC50 (human mGlu2 receptor),Emax (human mGlu2 receptor; [1]),GTPγS - hmGluR2 anGT Emax (human mGlu2 receptor; [1])
CCOc1ccc(N2C[C@H](C)n3ncc(-c4ccnc(C)c4)c3C2=O)cc1Cl (as salt: HCl) [compound 17],> 300 °C,,,
COc1ccc(N2C[C@H](C)n3ncc(-c4ccnc(C)c4)c3C2=O)cc1Cl (as salt: HCl) [compound 20],293.6 °C,,,
COCc1cc(-c2cnn3c2C(=O)N(c2ccc(C(F)(F)F)cc2)C[C@@H]3C)ccn1 (as salt: HCl) [compound 22],282.3 °C,,,
COc1ccc(N2C[C@H](C)n3ncc(-c4ccnc(C)c4)c3C2=O)cc1 (as salt: HCl) [compound 38],294 °C,,,
C[C@H]1CN(c2ccc(C(F)(F)F)cc2)C(=O)c2c(-c3ccnc(N4CCCCC4)c3)cnn21 (as salt: HCl) [compound 107],294 °C,,,
CCOc1cc(-c2cnn3c2C(=O)N(c2ccc(Cl)c(Cl)c2)C[C@@H]3C)ccn1 (as salt: HCl) [compound 133],191.5 °C,,,
CC(C)Oc1cc(-c2cnn3c2C(=O)N(c2ccc(Cl)c(Cl)c2)C[C@@H]3C)ccn1 (as salt: HCl) [compound 137],193.8 °C,,,
CC(C)Oc1cc(-c2cnn3c2C(=O)N(c2ccc(C(F)(F)F)cc2)C[C@@H]3C)ccn1 (as salt: HCl) [compound 138],173.9 °C,,,
Cc1cc(-c2cnn3c2C(=O)N(c2ccc(SC(F)(F)F)cc2)C[C@@H]3C)ccn1 (as salt: HCl) [compound 236],> 300 °C,,,
"CN(C)c1cc(-c2cnn3c2C(=O)N(c2ccc(Cl)c(Cl)c2)CC3CF)ccn1 (single isomer, unassigned) [compound 90]",93.7 °C,3.09e-09 M,103%,
"CN(C)c1cc(-c2cnn3c2C(=O)N(c2ccc(Cl)c(Cl)c2)CC3CF)ccn1 (single isomer, unassigned) [compound 91]",86 °C,5.62e-08 M,,103%
Cc1cc(-c2cnn3c2C(=O)N(c2ccc(Cl)c(C)c2)C[C@@H]3C)ccn1 [compound 7],126.7 °C,7.59e-09 M,102%,
Cc1cc(-c2cnn3c2C(=O)N(c2ccc(F)c(C)c2)C[C@@H]3C)ccn1 [compound 21],219.2 °C,6.17e-08 M,107%,
Cc1cc(-c2cnn3c2C(=O)N(c2cccc(C(F)(F)F)c2)C[C@@H]3C)ccn1 [compound 23],139.2 °C,1.1e-07 M,104%,
Cc1cc(-c2cnn3c2C(=O)N(c2ccc(OC(F)F)cc2)C[C@@H]3C)ccn1 [compound 27],137.1 °C,1.38e-07 M,104%,
Cc1cc(-c2cnn3c2C(=O)N(c2ccc(C(F)(F)F)cc2)C[C@@H]3C)cnc1C [compound 29],140.8 °C,2.29e-07 M,102%,
Cc1cc(-c2cnn3c2C(=O)N(c2ccc(Cl)cc2F)C[C@@H]3C)ccn1 [compound 30],78.6 °C,2.57e-07 M,104%,
C[C@H]1CN(c2ccc(C(F)(F)F)cc2)C(=O)c2c(-c3ccc(N)nc3)cnn21 [compound 37],254 °C,9.77e-07 M,99%,
Cc1cc(-c2cnn3c2C(=O)N(c2ccc(C(F)(F)F)c(F)c2)CC3)ccn1 [compound 39],185.2 °C,1.62e-06 M,100%,

Structure (SMILES),melting point,IC50 (human mGlu2 receptor),Emax (human mGlu2 receptor; [1]),GTPγS - hmGluR2 anGT Emax (human mGlu2 receptor; [1])
CCOc1cc(N2C[C@H](C)n3ncc(-c4cc(C)nc(C)c4)c3C2=O)ccc1C(F)(F)F [compound 49],183.9 °C,8.71e-09 M,103%,
C[C@H]1CN(c2ccc(C(F)(F)F)c(Cl)c2)C(=O)c2c(-c3ccncc3)cnn21 [compound 50],146.8 °C,9.55e-09 M,103%,
COc1cc(N2C[C@H](C)n3ncc(-c4cc(C)nc(C)c4)c3C2=O)ccc1C(F)(F)F [compound 51],93 °C,1.1e-08 M,104%,
"Cc1cc(-c2cnn3c2C(=O)N(c2ccc(C(F)(F)F)cc2)CC3CF)ccn1 (stereo not shown) [compound 52, 7-(Fluoromethyl)-3-(2-methyl-4-pyridyl)-5-[4-(trifluoromethyl)phenyl]-6,7-dihydropyrazolo[1,5-a]pyrazin-4-one]",> 300 °C,1.05e-08 M,107%,
Cc1cc(-c2cnn3c2C(=O)N(c2ccc(S(F)(F)(F)(F)F)cc2)C[C@@H]3C)cc(C)n1 [compound 53],233.1 °C,9.77e-09 M,102%,
Cc1cc(-c2cnn3c2C(=O)N(c2ccc(Cl)c(C(F)(F)F)c2)C[C@@H]3C)cc(C)n1 [compound 54],205.1 °C,1.05e-08 M,105%,
CCOc1cc(N2C[C@H](C)n3ncc(-c4ccncc4)c3C2=O)ccc1C(F)(F)F [compound 55],104.2 °C,1.62e-08 M,104%,
C[C@H]1CN(c2ccc(S(F)(F)(F)(F)F)cc2)C(=O)c2c(-c3ccncc3)cnn21 [compound 56],199 °C,1.62e-08 M,102%,
C[C@H]1CN(c2ccc(Cl)c(Cl)c2)C(=O)c2c(-c3ccncc3)cnn21 [compound 57],153.2 °C,1.29e-08 M,104%,
Cc1cc(-c2cnn3c2C(=O)N(c2ccc(C(F)(F)F)c(C#N)c2)C[C@@H]3C)cc(C)n1 [compound 59],214.1 °C,3.55e-08 M,98%,
C[C@H]1CN(c2ccc(C(F)(F)F)c(F)c2)C(=O)c2c(-c3ccncc3)cnn21 [compound 60],163.8 °C,3.16e-08 M,101%,
Cc1cc(-c2cnn3c2C(=O)N(c2ccc(C(F)(F)F)c(F)c2)C[C@@H]3C)cc(C)n1 [compound 61],73.3 °C,2.82e-08 M,106%,
Cc1cc(-c2cnn3c2C(=O)N(c2ccc(Cl)c(F)c2)C[C@@H]3C)ccn1 [compound 62],141.7 °C,3.31e-08 M,105%,
COc1cc(N2C[C@H](C)n3ncc(-c4ccncc4)c3C2=O)ccc1C(F)(F)F [compound 64],273.9 °C,2.63e-08 M,103%,
C[C@H]1CN(c2ccc(Cl)c(C(F)(F)F)c2)C(=O)c2c(-c3ccncc3)cnn21 [compound 68],> 300 °C,7.08e-08 M,100%,
"C[C@H]1CN(c2ccc(C(F)(F)F)cc2)C(=O)c2c(-c3ccnc(N)c3)cnn21 [compound 71, (7S)-3-(2-Aminopyridin-4-yl)-7-methyl-5-[4-(trifluoromethyl)phenyl]-6,7-dihydropyrazolo[1,5-a]pyrazin-4(5H)-one]",218.9 °C,9.77e-08 M,103%,
Cc1cc(-c2cnn3c2C(=O)N(c2ccc(Cl)cc2)C[C@@H]3C)cc(C)n1 [compound 72],88 °C,1.07e-07 M,103%,
CCCNc1cc(-c2cnn3c2C(=O)N(c2ccc(C(F)(F)F)c(Cl)c2)C[C@@H]3C)ccn1 [compound 264],,2.69e-09 M,108%,
C[C@H]1CN(c2ccc(C(F)(F)F)c(Cl)c2)C(=O)c2c(-c3ccnc(CF)c3)cnn21 [compound 265],,5.5e-09 M,111%,
